Residues, ends and D or L forms follow the SMILES beside them.
Experiments:
[1] = target: Sodium- and chloride-dependent glycine transporter 2 (Rattus norvegicus) (UniProt P58295); test: Inhibition of [3H]glycine uptake at rat glycine transporter 2 expressed in african green monkey COS7 cells
[2] = target: Sodium- and chloride-dependent glycine transporter 1 (Rattus norvegicus); test: Inhibition of [3H]glycine uptake at rat glycine transporter 1 expressed in african green monkey COS7 cells

Sodium- and chloride-dependent glycine transporter 2 (Rattus norvegicus), sequence (P58295 whole entry, looked up): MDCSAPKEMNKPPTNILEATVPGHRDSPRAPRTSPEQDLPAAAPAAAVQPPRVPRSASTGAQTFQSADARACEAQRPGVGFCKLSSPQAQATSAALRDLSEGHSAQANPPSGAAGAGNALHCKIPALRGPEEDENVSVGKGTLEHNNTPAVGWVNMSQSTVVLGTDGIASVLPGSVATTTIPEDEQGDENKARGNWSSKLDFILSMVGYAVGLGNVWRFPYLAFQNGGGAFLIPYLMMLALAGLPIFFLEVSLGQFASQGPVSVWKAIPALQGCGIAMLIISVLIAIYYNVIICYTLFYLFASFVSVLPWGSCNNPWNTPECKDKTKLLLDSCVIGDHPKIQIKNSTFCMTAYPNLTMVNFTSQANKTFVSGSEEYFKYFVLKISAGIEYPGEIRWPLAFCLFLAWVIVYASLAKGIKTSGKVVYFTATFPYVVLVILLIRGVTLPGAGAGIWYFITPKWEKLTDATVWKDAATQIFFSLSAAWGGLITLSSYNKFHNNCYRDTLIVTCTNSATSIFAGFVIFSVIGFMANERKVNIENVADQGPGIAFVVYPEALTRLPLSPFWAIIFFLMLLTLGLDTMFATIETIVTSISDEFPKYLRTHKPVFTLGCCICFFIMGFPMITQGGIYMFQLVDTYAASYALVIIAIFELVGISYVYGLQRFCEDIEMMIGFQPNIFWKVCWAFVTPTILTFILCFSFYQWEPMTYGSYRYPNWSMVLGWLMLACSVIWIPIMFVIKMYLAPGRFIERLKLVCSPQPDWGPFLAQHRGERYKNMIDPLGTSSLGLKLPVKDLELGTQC

| SMILES | IC50 [1] [nM] | IC50 [2] [nM] |
| --- | --- | --- |
| CC[C@H](C)[C@@H]1NC(=O)[C@H](Cc2ccccc2)NC(=O)[C@H]([C@H](C)[C@@H](C)O)NC(=O)[C@H](C(C)C)NC1=O [(3S,6S,9S,12S)-3-benzyl-12-sec-butyl-6-((2S,3R)-3-hydroxybutan-2-yl)-9-isopropyl-1,4,7,10-tetraazacyclododecane-2,5,8,11-tetraone] | 574 | 10.2 |
| CC[C@H](C)[C@@H]1NC(=O)[C@H](Cc2ccccc2)NC(=O)[C@H]([C@H](CS(=O)(=O)O)C(C)=O)NC(=O)[C@H]([C@@H](C)CC)NC1=O [(S)-2-((2S,5S,8S,11S)-5-benzyl-8,11-di-sec-butyl-3,6,9,12-tetraoxo-1,4,7,10-tetraazacyclododecan-2-yl)-3-oxobutane-1-sulfonic acid] | 2260 | 20.4 |
| CC(C)[C@@H]1NC(=O)[C@H](Cc2ccccc2)NC(=O)[C@H]([C@H](C)[C@@H](C)O)NC(=O)[C@H](C(C)C)NC1=O [(3S,6S,9S,12S)-3-benzyl-6-((2S,3R)-3-hydroxybutan-2-yl)-9,12-diisopropyl-1,4,7,10-tetraazacyclododecane-2,5,8,11-tetraone] | 542 | 11.1 |

Stronger by IC50 [1], values ahead:

| IC50 [1] [nM] | IC50 [2] [nM] | SMILES |
| --- | --- | --- |
| 450 | – | CC[C@H](C)[C@@H]1NC(=O)[C@H](C(C)C)NC(=O)[C@H](Cc2ccccc2)NC(=O)[C@H]([C@H](C)[C@@H](C)O)NC1=O [(3S,6S,9S,12S)-3-benzyl-9-sec-butyl-6-((2S,3R)-3-hydroxybutan-2-yl)-12-isopropyl-1,4,7,10-tetraazacyclododecane-2,5,8,11-tetraone] |
| 278 | 3 | CC[C@H](C)[C@@H]1NC(=O)[C@H](Cc2ccccc2)NC(=O)[C@H]([C@H](C)[C@@H](C)O)NC(=O)[C@H]([C@@H](C)CC)NC1=O [(3S,6S,9S,12S)-3-benzyl-9,12-di-sec-butyl-6-((2S,3R)-3-hydroxybutan-2-yl)-1,4,7,10-tetraazacyclododecane-2,5,8,11-tetraone] |
| 226 | – | CC[C@H](C)[C@@H]1NC(=O)[C@H](Cc2ccccc2)NC(=O)[C@H]([C@@H](C)CC)NC(=O)[C@H]([C@@H](C)CC)NC1=O [(3S,6S,9S,12S)-3-benzyl-6,9,12-tri-sec-butyl-1,4,7,10-tetraazacyclododecane-2,5,8,11-tetraone] (cyclo(FIII)) |
| 21.1 | – | N[C@@H](COC(c1cccc(F)c1)c1ccccc1OCc1ccccc1)C(=O)O (stereo partly drawn) [(2S)-2-amino-3-((2-(benzyloxy)phenyl)(3-fluorophenyl)methoxy)propanoic acid] |

From BindingDB's records for doi:10.1016/j.bmcl.2008.10.104 (Taisho Pharmaceutical, 2008)
